# Reference: patent US20130210771A1, “METHODS AND COMPOSITIONS FOR TREATING CANCERS” (IRM LLC, priority 2007, published 2013)
# Where a name gives a salt, the structure may show the parent alone.
# Legend:
# CML = CML therapy; cited from earlier work
# [1] = system: human CML K562 cells selected for resistance to imatinib; conditions: cited from earlier work
# [2] = system: BCR-ABL positive bone marrow cells; test: in vitro treatment of mixed bone marrow cultures from mice with CML-like syndrome, flow cytometry; assay type: cell-based, mouse
# Procedure: (§1) Bone marrow cells from diseased mice are cultured in DMEM media containing 10% FBS (Gibco), SCF (RDI), IL-3 and IL-6 (R&D systems). For in-vitro treatment experiments, 4×10^6 bone marrow or spleen cells are seeded into 1 well of a 6-well plate. Cyclopamine-KAAD (obtained from Toronto Research Chemicals) is dissolved as ×1,000 stock in DMSO. After 72 hours of treatment, cells are plated in methyl cellulose media containing SCF, IL-6, IL-3 and insulin from stem cell technologies (M3434) according to the manufacturer's instruction. Colonies are counted 5 days and 10 days after plating. After 12 days, cells are diluted from the plates, washed in PBS and then either stained for analysis of different cell types or replated into a second or third plating round.
# Flow cytometry stainings for analysis of hematological cell types is performed using the antibodies Sca-PE, Kit-APC, Lin markers CD3, Gr-1, CD11b, CD19, Ter119 all PE-Cy7 positive, CD4-PE, CD8-APC from BD Pharmingen according to the manufacturer's instructions. For cell cycle analysis of stem cells, cells are treated with cyclopamine for 48 hours, then stained with Lin markers, Kit-APC and Sca-PE. Stained bone marrow is then fixed in 2% Formalin. Cells are permeabilized with 70% chilled ethanol for at least 1 hour and then treated with propidium iodide (5 mg/ml) for at least 30 minutes. Cells are analyzed using a flow cytometer from Coulter. Annexin staining is performed after incubation of mixed bone marrow with cyclopamine for 24, 48 and 72 hours. Cells are stained with Annexin-PE antibody and 7-AAD (BD Bioscience) according to the manufacturer's instructions.
# Bone marrow from mice with CML-like syndrome which contained about 50% BCR-ABL GFP positive cells versus 50% normal bone marrow cells is used. […] GFP positive cells after in vitro treatment with cyclopamine (2 μM or 5 μM) can be detected by flow cytometry analysis.
# (§2) Gli1 transcript levels in the bone marrow are reduced after treatment with cyclopamine, verifying the inhibition of the hedgehog signaling pathway in those cells by the compound (FIG. 2B). In FIG. 2B, bone marrow cultures are treated with either DMSO alone or different concentrations of cyclopamine (2 μM or 5 μM) for six hours. RNA is extracted from treated cultures and Gli1 transcript levels are measured by Taqman PCT and normalized to GAPDH. Assays are done in triplicates.
# Gli1 = Gli1 transcript levels in treated bone marrow cultures (Taqman PCR); assay type: cell-based, mouse; conditions: 2 μM or 5 μM, six hours, normalized to GAPDH (FIG. 2B)
# Procedure: RNA is extracted from CD34+ cells from CML patients in chronic phase or blast crisis of disease, from whole bone marrow or from sorted Lin−Kit+Sca+ positive cells using a Qiagen RNA extraction kit according to the manufacturer's recommendation. Quantitative PCR is assessed by Taqman PCR. Primers and probes are obtained from Applied Biosystems.
# as §2
# [3] = system: BCR-ABL positive colonies; test: methyl cellulose colony assay of pretreated mixed bone marrow and spleen cultures; assay type: cell-based, mouse; conditions: 10, 5, 2.5, 1 and 0 uM for 48 hours; colonies counted 10 days after plating, no cytokines (FIG. 2C)
# Procedure: as §1
# To further validate the effect of hedgehog pathway inhibition on the self renewing progenitor and leukemic stem cell population, mixed bone marrow and spleen cultures are treated with different concentrations of cyclopamine-KAAD (10, 5, 2.5, 1 and 0 uM) for 48 hours. The cells are then plated in methyl cellulose plates without supplementary cytokines, so that only BCR-ABL positive cells can survive. Colonies are counted 10 days after plating.
# Aurora kinases = conditions: cited from earlier work
# [4] = system: BCR-ABL positive leukemia; test: treatment of mice transplanted with BCR-ABL positive bone marrow (CML-like disease); assay type: in vivo, mouse
# Procedure: Ptch+/− mice (Jackson Laboratory), Smo−/− mice (Deltagene), C57BL/6 mice (Jackson laboratory) and B6-Pep3b-Ly5.1 (Pep) mice) are maintained and genotyped as described. For bone marrow transplantation experiments, C57BL/6 males are injected with 5-FU (150 mg/kg) intraperitoneal and sacrificed four days later. Bone marrow mononuclear cells are flushed from the leg bones, red blood cells are lysed with ammonium-chloride and bone marrow cells are cultivated in DMEM containing 10% FBS, SCF, IL-6 and IL-3. Cells are infected with a pMSCV/BCR-ABL/IRES/GFP retrovirus, 5×10^5 mononuclear cells are transplanted into lethally irradiated C57BL/6 mice. Treatment with AMN107 50 mg/kg bid (Novartis, Basel) and cyclopamine 25 mg/kg bid (Novartis, Cambridge) started day 7 after transplantation for 14 days.
# Mice transplanted with BCR-ABL positive bone marrow is treated with either a suboptimal dose of the ABL inhibitor AMN107, or with a combination of AMN107 (50 mg/kg qd) and the Smo antagonist cyclopamine (25 mg/kg bid). Treatment is started seven days after transplantation and is continued for fourteen days total. At the end of the treatment, three mice in each group are sacrificed and bone marrow from 1 femur is plated in methyl cellulose colony assays without addition of cytokines to detect only BCR-ABL positive colonies.
# Eight days after the end of treatment, another three mice per group are sacrificed and examined for signs of relapse by comparing liver and spleen weight. […] The five remaining mice in each group are monitored for signs of disease and sacrificed when moribund.
# [5] = system: Ba/F3 cells transfected with M351T mutant BCR-ABL; conditions: cited from earlier work
# [6] = system: Ba/F3 cells transfected with E255V mutant BCR-ABL; conditions: cited from earlier work
# [7] = system: Ba/F3 cells transfected with p210 non-mutated BCR-ABL; conditions: cited from earlier work
# [8] = mixed bone marrow cultures, 72 hours (FIG. 2A)
# [9] = eight days after the end of treatment
structure (smiles),measurement,setting,value
Cc1ccc(NC(=O)c2ccc(CN3CCN(C)CC3)cc2)cc1Nc1nccc(-c2cccnc2)n1 [Imatinib mesylate],response rates,CML,more than 96%
Cc1cc(Nc2ncc3cc(-c4c(Cl)cccc4Cl)c(=O)n(C)c3n2)ccc1F [PD180970],proliferation of imatinib-resistant K562 cells over-expressing Lyn,[1],inhibited
CC1=C2C[C@H]3[C@@H](CC=C4C[C@@H](O)CC[C@@]43C)[C@@H]2CC[C@]12O[C@@H]1C[C@H](C)CN[C@H]1[C@H]2C [cyclopamine],"alterations in the cell cycle, complete bone marrow","[2]; 48 hours, propidium iodide",relative increase of the G1 phase compared to S phase and G2 phase
same,cell cycle analysis of the leukemic stem cell population,"[2]; 48 hours, propidium iodide",complete loss of the G2 phase
same,"apoptosis induction in BCR-ABL positive bone marrow cells, time",[2]; AnnexinV staining,≤ 24 h
same,reduction of BCR-ABL positive myeloid progenitor cells (Lin−Kit+Sca−),[2]; [8],more than 80%
same,reduction of the Lin−Kit+Sca+ leukemic stem cell population,[2]; [8],around 70%
same,Gli1 transcript levels in the bone marrow,Gli1,reduced
CC1=C2C[C@H]3[C@@H](CC=C4CC(=O)CC[C@@]43C)[C@@H]2CC[C@]12O[C@@H]1C[C@H](C)CN(CCNC(=O)CCCCCNC(=O)CCc3ccccc3)[C@H]1[C@H]2C [KAAD-cyclopamine],reduction of the GFP/BCR-ABL positive population compared to the GFP negative population,"[2]; mixed bone marrow cultures, three days, 2 μM or 5 μM",dose dependent reduction
same,BCR-ABL positive colonies,[3],dose dependent reduction
Cc1cc(Nc2cc(N3CCN(C)CC3)nc(Sc3ccc(NC(=O)C4CC4)cc3)n2)n[nH]1 [MK-0457],inhibition of all three Aurora kinases,Aurora kinases,nanomolar range
"Cc1cn(-c2cc(NC(=O)c3ccc(C)c(Nc4nccc(-c5cccnc5)n4)c3)cc(C(F)(F)F)c2)cn1 [AMN107, nilotinib]","peripheral blood cell counts, spleen and liver weights",[4]; at the end of the treatment,normal
same,average spleen size relative to the combination group,[4]; [9],about double
same,liver weight relative to the combination group,[4]; [9],much higher
same,average survival after end of treatment,"[4]; five mice per group, sacrificed when moribund (FIG. 5C)",eight
"NC(=O)c1cccc(-c2cc(Nc3ccc(OC(F)(F)F)cc3)ncn2)c1 [GNF-2, 3-[6-[[4-(trifluoromethoxy)phenyl]amino]-4-pyrimidinyl]benzamide]","proliferation of Ba/F3 cells, M351T mutant BCR-ABL",[5],inhibits the proliferation
same,"proliferation of Ba/F3 cells, E255V mutant BCR-ABL",[6],inhibits the proliferation
same,"proliferation of Ba/F3 cells, p210 non-mutated BCR-ABL",[7],inhibits the proliferation
